The record followed here is patent US11845747B2, “Ester and carbonate pyrimidine compounds as JAK kinase inhibitors” (priority 2019, dated 2023).

Bounds are passed on as bounds.

A short description of data set [1]: In vitro skin S9 metabolic stability assay (human). Format: in vitro ADME. As to conditions: human skin S9 sub-fraction, pH 7.4, 1.0 mg/mL protein, 1 mM NADPH, read-out: Half-Life; for half-life at 0.2 μM: Human skin S9, 0.2 μM; for half-life at 2 μM: Human skin S9, 2 μM. The protocol:
(§1) Assay 6: In Vitro Skin S9 Metabolic Stability Assay
(§2) The objective of this assay was to assess the metabolic stability of compounds in human and mouse skin S9 sub-fraction. Human and mouse skin S9 sub-fractions obtained from Bioreclamation-IVT (Baltimore, Md.) were thawed on ice and diluted into 0.1M potassium phosphate buffer pH 7.4 to yield final incubation protein concentrations of 1.0 mg/mL. Test compounds (10 mM) were diluted into phosphate buffer to yield final incubation concentrations of 0.2 μM and 2.0 μM. Incubations were conducted at 37° C. temperature following addition of 1 mM NADPH and test aliquots were taken at time points 0, 5, 10, 20, 30 and 45 minutes. Each aliquot was crashed into water with 3% formic acid and 1 μM internal standard. The resulting samples were injected onto an LC-MS/MS system for analysis.
(§3) For each incubation, the peak area of the analytes in each t0 aliquot was set to 100% and the peak areas from subsequent time point aliquots were converted to percentage of parent compound remaining relative to t0. The percentage of parent compound remaining at each time point was converted to natural log scale and plotted versus time in minutes to determine a disappearance half-life.

The nature of data set [2]: In vitro skin S9 metabolic stability assay (mouse). Format: in vitro ADME. The following applies: mouse skin S9 sub-fraction, pH 7.4, 1.0 mg/mL protein, 1 mM NADPH, read-out: Half-Life; for half-life at 0.2 μM: Mouse skin S9, 0.2 μM; for half-life at 2 μM: Mouse skin S9, 2 μM. The procedure: as §1, §2, §3

A word on the half-life: it is how long it takes for the measured level to halve. Consider `CCOc1ccc2ccc(=O)oc2c1` [7-Ethoxycoumarin, reference compound], for which, in data set [1], the half-life at 0.2 μM was above 30 min and the half-life at 2 μM was above 30 min. In data set [2], the half-life at 0.2 μM was above 30 min and the half-life at 2 μM was above 30 min.
Regarding `CC(Cc1cccc(C(F)(F)F)c1)NCCOC(=O)c1ccccc1` (centres unmarked) [Benfluorex, reference compound], the half-life at 0.2 μM in data set [1] and in data set [2] was below 15 min in each case. For the same compound, the half-life at 2 μM in data set [1] and in data set [2] was below 15 min throughout.
